Source: patent publication US12564570B2, “Use of leoligin in the prevention of tissue damage” (UNIVERSITÄT LINZ, priority 2020, dated 2026)

Assays:
ATRA-signalling = conditions: Danzl et al. 2019; cited from earlier work
[1] = Metabolic stability assay in pooled human lung microsomes; format: in vitro ADME; conditions: pooled human lung microsomes with co-factors; also printed as 23.1 h
Procedure: (§1) For the organ specific enzymatic degradation of a compound a reaction mix (1 ml) was made, and aliquots (50 μl) were taken at the timepoints indicated in the Figures to calculate the elimination constant by measuring the compound concentration over time using HPLC-based quantification.
(§2) The reaction mix contains: • Subcellular fraction of the specific organ (Liver S9, Lung microsomes, or Saliva), • Co-Factor Solution (NADPH and UDPGA). Co-factors are used in this assay to activate the enzymatic activity of the main metabolizing enzymes of the organ specific subcellular fractions. NADPH is needed for the Phase I oxidation where Cytochrome P450 […] accounts for the most and UDPGA is needed for the Phase II glucuronidation, • and the desired compound: 5-ML as active ingredient, Diclofenac as control, water as control; diluted in DMSO.
(§3) Preparation of the reaction mix (in Triplicates): • Take 980 μl organ specific subcellular fraction solution (0.5 mg/ml) of human liver S9 fraction in DPBS with Calcium and Magnesium, • Add 10 μl of substance stock solution dissolved in DMSO (c 0,003 M) from either 5-ML, Diclofenac or water as solvent control. […] Cells 2020, 9, 2048).
Next, 5-ML was exposed to lung microsomes (drug delivery by inhalation).
Materials & Methods are the same as in Example 4, except that lung microsomes were used instead of S9 liver fraction.

[2] = Metabolic stability assay in human liver S9 fraction; format: in vitro ADME; conditions: for elimination half live in liver S9: human liver S9 0.5 mg/ml, NADPH and UDPGA co-factors, 3 μM compound, 37° C., HPLC, first order kinetic
Description: To gain insights into the enzymatic stability of a drug, the metabolic stability assay serves as an effective tool and also helps to separate applicable routes for drug uptake from less applicable ones e.g. due to fast hepatic clearance. When substances are applied orally, the liver clearance (first-pass effect) has the most influence on drug clearance and further on the amount of active drug reaching the site of action. Thus, in order to test hepatic clearance, 5-ML was exposed to subcellular fractions of liver and compound concentrations were assessed in a time-dependent manner.
The concept of in vitro metabolic stability testing is based on and predicts well liver metabolic clearance in vivo. Therefore, the subcellular fraction which accounts for most of the enzymatic activity of the organ is used, which contains intra and extra cellular enzymes of the liver. The elimination half live of 5-ML was calculated by the assessment of the elimination constant.
as §1, §2
All compounds were tested in triplicates, except the solvent control (water instead of active compound 5-ML). […]

[3] = Metabolic stability assay in pooled human saliva; format: in vitro ADME
Procedure: as §1, §2, §3
Materials & Methods are the same as in Example 4, except that pooled human saliva was used instead of S9 liver fraction. […]

[4] = system: myocardial infarction in mice; conditions: after induction of MI in mice, 10 injections per heart directly into the infarction zone; cited from earlier work
[5] = system: myocardial infarction rat model; conditions: direct injection into the peri-infarction zone; cited from earlier work
[6] = literature value; cited from earlier work

Row | SMILES | inhibition of ATRA-signalling (ATRA-signalling) | elimination half live in lung microsomes [1] | elimination half live in liver S9 [2] | elimination constant of exponential first order kinetic ([2]; human liver S9, Ln(2)/k gives half live, time axis in minutes, in min-1) | elimination in saliva with co-factors ([3]; with co-factors (NADPH and UDPGA)) | elimination half-life in saliva without co-factor ([3]; without co-factor solution) | infarction area [4] | arteriogenesis in vivo [5] | estimated half live in human liver in literature [6]
1 | C/C=C(/C)C(=O)OC[C@H]1[C@@H](Cc2ccc(OC)c(OC)c2)CO[C@@H]1c1cc(OC)c(OC)c(OC)c1 [5-ML] | capable of inhibiting ATRA-signalling | 1386 min | 10.66 min | 0,065 | no elimination | 115.5 h | reduces the infarction area | induced arteriogenesis | 
2 | O=C(O)Cc1ccccc1Nc1c(Cl)cccc1Cl [diclofenac, reference compound] |  |  | 173 min |  |  |  |  |  | 1 to 3 h
